{"source": "PubChem BioAssay AID1259407", "about": "(Chemical Carcinogenesis Research Information System (CCRIS), 2018)", "system": "CCRIS mutagenicity, Ames/micronucleus/aberration tests", "assay": "CCRIS mutagenicity studies", "key": {"[1]": {"settings": "Test System: AMES SALMONELLA TYPHIMURIUM, Strain/Indicator: TA98, Metabolic Activation: NONE, Method: PREINCUBATION"}, "[2]": {"settings": "Test System: AMES SALMONELLA TYPHIMURIUM, Strain/Indicator: TA98, Metabolic Activation: RAT, LIVER, S-9, PCB, Method: PREINCUBATION"}, "[3]": {"settings": "Test System: AMES SALMONELLA TYPHIMURIUM, Strain/Indicator: TA100, Metabolic Activation: NONE, Method: STANDARD PLATE"}, "[4]": {"settings": "Test System: AMES SALMONELLA TYPHIMURIUM, Strain/Indicator: TA98, Metabolic Activation: NONE, Method: STANDARD PLATE"}, "[5]": {"settings": "Test System: AMES SALMONELLA TYPHIMURIUM, Strain/Indicator: TA98, Metabolic Activation: RAT, LIVER, S-9, AROCLOR 1254, Method: STANDARD PLATE"}, "[6]": {"settings": "Test System: AMES SALMONELLA TYPHIMURIUM, Strain/Indicator: TA1535, Metabolic Activation: NONE, Method: STANDARD PLATE"}}, "note": "The source made the active and inactive calls. The rule behind the calls is not given here."}
{"smiles": "C[C@H](CCC(=O)O)[C@H]1CC[C@H]2[C@@H]3CC[C@@H]4CC(=O)CC[C@]4(C)[C@H]3C[C@@H](O)[C@]12C", "values": [{"measurement": "mutagenic call", "setting": "Test System: AMES SALMONELLA TYPHIMURIUM, Strain/Indicator: TA98, Metabolic Activation: NONE, Method: FLUCTUATION TEST", "result": "inactive; negative"}, {"measurement": "mutagenic call", "setting": "[1]", "result": "inactive; negative"}, {"measurement": "mutagenic call", "setting": "[2]", "result": "inactive; negative"}, {"measurement": "mutagenic call", "setting": "Test System: AMES SALMONELLA TYPHIMURIUM, Strain/Indicator: TA100, Metabolic Activation: NONE, Method: FLUCTUATION TEST", "result": "inactive; negative"}]}
{"smiles": "O=CNc1nc(-c2ccc([N+](=O)[O-])o2)cs1", "values": [{"measurement": "mutagenic call", "setting": "[3]", "result": "active; positive"}, {"measurement": "mutagenic call", "setting": "Test System: AMES SALMONELLA TYPHIMURIUM, Strain/Indicator: TA100, Metabolic Activation: RAT, LIVER, S-9, KC500 OR PHENOBARBITAL, Method: LIQUID SUSPENSION", "result": "active; positive"}, {"measurement": "mutagenic call", "setting": "Test System: E. COLI, Strain/Indicator: WP2, Metabolic Activation: NONE, Method: SPOT", "result": "active; positive"}, {"measurement": "mutagenic call", "setting": "Test System: E. COLI, Strain/Indicator: WP2, Metabolic Activation: NONE, Method: STANDARD PLATE", "result": "active; positive"}, {"measurement": "mutagenic call", "setting": "Test System: E. COLI, Strain/Indicator: WP2 UVRA, Metabolic Activation: HAMSTER, LIVER, S-9, AROCLOR 1254, Method: STANDARD PLATE", "result": "active; positive"}, {"measurement": "mutagenic call", "setting": "Test System: E. COLI, Strain/Indicator: WP2 UVRA, Metabolic Activation: HAMSTER, LIVER, S-9, Method: STANDARD PLATE", "result": "active; positive"}, {"measurement": "mutagenic call", "setting": "Test System: E. COLI, Strain/Indicator: WP2 UVRA, Metabolic Activation: MOUSE, LIVER, S-9, AROCLOR 1254, Method: STANDARD PLATE", "result": "active; positive"}, {"measurement": "mutagenic call", "setting": "Test System: E. COLI, Strain/Indicator: WP2 UVRA, Metabolic Activation: MOUSE, LIVER, S-9, Method: STANDARD PLATE", "result": "active; positive"}, {"measurement": "mutagenic call", "setting": "Test System: E. COLI, Strain/Indicator: WP2 UVRA, Metabolic Activation: NONE, Method: SPOT", "result": "active; positive"}, {"measurement": "mutagenic call", "setting": "Test System: E. COLI, Strain/Indicator: WP2 UVRA, Metabolic Activation: NONE, Method: STANDARD PLATE", "result": "active; positive"}, {"measurement": "mutagenic call", "setting": "Test System: E. COLI, Strain/Indicator: WP2 UVRA, Metabolic Activation: RAT, LIVER, S-9, AROCLOR 1254, Method: STANDARD PLATE", "result": "active; positive"}, {"measurement": "mutagenic call", "setting": "Test System: E. COLI, Strain/Indicator: WP2 UVRA, Metabolic Activation: RAT, LIVER, S-9, Method: STANDARD PLATE", "result": "active; positive"}]}
{"smiles": "CCCCC/C=C\\C/C=C\\C/C=C\\C/C=C\\CCCC(=O)O", "values": [{"measurement": "mutagenic call", "setting": "Test System: CHINESE HAMSTER V-79, Strain/Indicator: V-79/6-THIOGUANINE, Metabolic Activation: NONE", "result": "active; positive"}]}
{"smiles": "[N-]=[N+]=NC[C@H](O)c1ccccc1", "values": [{"measurement": "mutagenic call", "setting": "Test System: AMES SALMONELLA TYPHIMURIUM, Strain/Indicator: TA100, Metabolic Activation: RAT, LIVER, S-9, PCB, Method: PREINCUBATION", "result": "active; positive"}]}
{"smiles": "O=S(=O)(NO)c1cccc2cccnc12", "values": [{"measurement": "mutagenic call", "setting": "[4]", "result": "inactive; negative"}, {"measurement": "mutagenic call", "setting": "[5]", "result": "inactive; negative"}, {"measurement": "mutagenic call", "setting": "[3]", "result": "inactive; negative"}, {"measurement": "mutagenic call", "setting": "Test System: AMES SALMONELLA TYPHIMURIUM, Strain/Indicator: TA100, Metabolic Activation: RAT, LIVER, S-9, AROCLOR 1254, Method: STANDARD PLATE", "result": "inactive; negative"}, {"measurement": "mutagenic call", "setting": "[6]", "result": "inactive; negative"}, {"measurement": "mutagenic call", "setting": "Test System: AMES SALMONELLA TYPHIMURIUM, Strain/Indicator: TA1535, Metabolic Activation: RAT, LIVER, S-9, AROCLOR 1254, Method: STANDARD PLATE", "result": "inactive; negative"}, {"measurement": "mutagenic call", "setting": "Test System: AMES SALMONELLA TYPHIMURIUM, Strain/Indicator: TA1537, Metabolic Activation: NONE, Method: STANDARD PLATE", "result": "inactive; negative"}, {"measurement": "mutagenic call", "setting": "Test System: AMES SALMONELLA TYPHIMURIUM, Strain/Indicator: TA1537, Metabolic Activation: RAT, LIVER, S-9, AROCLOR 1254, Method: STANDARD PLATE", "result": "inactive; negative"}]}
{"smiles": "CCCCCN1C2c3ccccc3-c3ccccc3C21", "note": "(stereo not given)", "values": [{"measurement": "mutagenic call", "setting": "[3]", "result": "active; positive"}]}
{"smiles": "O=[N+]([O-])c1cc2c(cc1O)[nH]c1ccccc12", "values": [{"measurement": "mutagenic call", "setting": "Test System: AMES SALMONELLA TYPHIMURIUM, Strain/Indicator: TA98(NR), Metabolic Activation: NONE, Method: STANDARD PLATE", "result": "active; positive"}, {"measurement": "mutagenic call", "setting": "Test System: AMES SALMONELLA TYPHIMURIUM, Strain/Indicator: TA98(NR), Metabolic Activation: RAT, LIVER, S-9, AROCLOR 1254, Method: STANDARD PLATE", "result": "active; positive"}, {"measurement": "mutagenic call", "setting": "[4]", "result": "active; positive"}, {"measurement": "mutagenic call", "setting": "[5]", "result": "active; positive"}]}
{"smiles": "COc1cccc2c1C(=O)c1c(O)c3c(c(O)c1C2=O)C[C@@](O)(C(=O)CO)C[C@@H]3O", "values": [{"measurement": "mutagenic call", "setting": "[4]", "result": "active; positive"}, {"measurement": "mutagenic call", "setting": "[5]", "result": "active; positive"}, {"measurement": "mutagenic call", "setting": "[3]", "result": "active; positive"}, {"measurement": "mutagenic call", "setting": "Test System: AMES SALMONELLA TYPHIMURIUM, Strain/Indicator: TA1538, Metabolic Activation: NONE, Method: STANDARD PLATE", "result": "active; positive"}]}
{"smiles": "c1ccc(-c2ccccn2)nc1", "values": [{"measurement": "mutagenic call", "setting": "Test System: AMES SALMONELLA TYPHIMURIUM, Strain/Indicator: TA97, Metabolic Activation: RAT, LIVER, S-9, PHENOBARBITAL, Method: STANDARD PLATE", "result": "active; positive"}, {"measurement": "mutagenic call", "setting": "Test System: AMES SALMONELLA TYPHIMURIUM, Strain/Indicator: TA98, Metabolic Activation: RAT, LIVER, S-9, PHENOBARBITAL, Method: STANDARD PLATE", "result": "active; positive"}, {"measurement": "mutagenic call", "setting": "Test System: AMES SALMONELLA TYPHIMURIUM, Strain/Indicator: TA100, Metabolic Activation: RAT, LIVER, S-9, PHENOBARBITAL, Method: STANDARD PLATE", "result": "active; positive"}, {"measurement": "mutagenic call", "setting": "Test System: AMES SALMONELLA TYPHIMURIUM, Strain/Indicator: TA1535, Metabolic Activation: RAT, LIVER, S-9, PHENOBARBITAL, Method: STANDARD PLATE", "result": "inactive; negative"}, {"measurement": "mutagenic call", "setting": "Test System: AMES SALMONELLA TYPHIMURIUM, Strain/Indicator: TA1537, Metabolic Activation: RAT, LIVER, S-9, PHENOBARBITAL, Method: STANDARD PLATE", "result": "inactive; negative"}, {"measurement": "mutagenic call", "setting": "Test System: AMES SALMONELLA TYPHIMURIUM, Strain/Indicator: TA1538, Metabolic Activation: RAT, LIVER, S-9, PHENOBARBITAL, Method: STANDARD PLATE", "result": "inactive; negative"}]}
{"smiles": "Cc1ccc(C(C)C)cc1O", "values": [{"measurement": "mutagenic call", "setting": "[4]", "result": "inactive; negative"}, {"measurement": "mutagenic call", "setting": "Test System: AMES SALMONELLA TYPHIMURIUM, Strain/Indicator: TA98, Metabolic Activation: S-9, Method: STANDARD PLATE", "result": "inactive; negative"}, {"measurement": "mutagenic call", "setting": "[3]", "result": "inactive; negative"}, {"measurement": "mutagenic call", "setting": "Test System: AMES SALMONELLA TYPHIMURIUM, Strain/Indicator: TA100, Metabolic Activation: S-9, Method: STANDARD PLATE", "result": "inactive; negative"}]}
{"smiles": "C#CC(OC(=O)NC1CCCCC1)(c1ccccc1)c1ccc(C)c(C)c1", "note": "(stereo not given)", "values": [{"measurement": "mutagenic call", "setting": "[3]", "result": "active; positive"}, {"measurement": "mutagenic call", "setting": "[6]", "result": "active; positive"}, {"measurement": "mutagenic call", "setting": "Test System: UDS HUMAN FIBROBLASTS, Strain/Indicator: THY INCORP (NON-S-PHASE), Metabolic Activation: NONE, Method: AUTORADIOGRAPHY", "result": "active; positive"}]}
{"smiles": "Nc1ccc2nc3ccc(N)cc3nc2c1", "values": [{"measurement": "mutagenic call", "setting": "[1]", "result": "inactive; negative"}, {"measurement": "mutagenic call", "setting": "[2]", "result": "active; positive"}]}
